The text below walks through data of patent US9593149B2, “Amylin and calcitonin receptor agonist” (Novo Nordisk A/S, priority 2014, dated 2017).

Peptide text beside a SMILES is read from it. * marks the point of attachment. C18 diacid = O=C(O)CCCCCCCCCCCCCCCCC(=O)*

Data set [1] in a line: Assay (XVII) T½ and subcutaneous bioavailability in Beagle dogs. The format is in vivo. The protocol: The area under the plasma concentration versus time curve (AUC, [time×concentration]) was calculated (by the Pharsight programme) after both subcutaneous administration and intravenous administration, typically until 240-288 hours post dosing, or until last measured concentration. The AUC was calculated by extrapolating to infinity and dose normalized. The absolute bioavailability (F %) was then calculated based on the dose-corrected AUC values, namely as AUC/Dsc divided by AUC/Div×100, where Dsc is the subcutaneous dose per kg, and Div the dose per kg given intravenously. Assay (XVII)—Determination of T½ and Subcutaneous Bioavailability in Beagle Dogs […]
By protraction is meant the prolongation of the time in the body and thereby the time of action of the mimylin derivatives. This was done in PK studies, where the terminal half-life of the derivative in question was determined following i.v. administration. By terminal half-life is generally meant the period of time it takes to halve a certain plasma concentration, measured after the initial distribution phase. […]
The plasma concentration of the respective mimylin derivative was analysed using LC-MS. Individual plasma concentration-time profiles were analysed by a non-compartmental model in Phoenix WinNonlin version 6.3 (Pharsight Inc., Mountain View, Calif., USA). […]

Data set [2] is described as follows: Assay (IX) pK, T½ in mini-pig. The format is in vivo, Göttingen mini-pigs. The conditions noted are these: i.v. The method in brief:
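Female Göttingen mini-pigs (5–12 months, 15–35 kg, fed freely) received a single i.v. dose of approximately 5 nmol/kg via central venous catheter, typically n=3. Plasma was sampled from pre-dose to 240 h (sometimes 288 h) and quantified by LC-MS. T½ was derived by non-compartmental analysis from the terminal log-linear slope (ln2/λz).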

Regarding `CC(C)C[C@H](NC(=O)[C@H](C)NC(=O)[C@H](C)NC(=O)[C@@H](NC(=O)[C@H](CO)NC(=O)[C@H](CC(C)C)NC(=O)[C@H](CCC(=O)O)NC(=O)[C@H](CO)NC(=O)[C@H](C)NC(=O)[C@H](CCC(=O)O)NC(=O)CCCCCCCCCCCCCCCCC(=O)O)[C@@H](C)O)C(=O)NCC(=O)N[C@@H](CCCNC(=N)N)C(=O)N[C@@H](CC(C)C)C(=O)N[C@@H](CO)C(=O)N[C@@H](C)C(=O)N[C@@H](CCC(=O)O)C(=O)N[C@@H](CC(C)C)C(=O)N[C@@H](Cc1cnc[nH]1)C(=O)N[C@@H](CCC(=O)O)C(=O)N[C@@H](CC(C)C)C(=O)N[C@@H](C)C(=O)N[C@H](C(=O)N[C@@H](CC(C)C)C(=O)N1CCC[C@H]1C(=O)N[C@@H](CCCNC(=N)N)C(=O)N[C@H](C(=O)N[C@@H](CCC(=O)O)C(=O)N[C@H](C(=O)NCC(=O)N1CCC[C@H]1C(=O)N[C@@H](CCC(=O)O)C(=O)N[C@@H](CO)C(=O)N1CCC[C@H]1C(N)=O)[C@@H](C)O)[C@@H](C)O)[C@@H](C)O` [Ex. #2, [N-terminal(C18 diacid)]mimylin] ({C18 diacid}-EASELSTAALGRLSAELHELATLPRTETGPESP-NH2), the “Subcutaneous bioavailability (%)” value in data set [1] (Beagle dogs) turned out to be 98%. Also, in data set [1] (i.v., harmonic mean, n = 2), the “Beagle dogs iv PK, t½” value was determined as 95 h. For the same molecule, in data set [2], the “PK mini pig iv T½” value stood at 85 h.
